# Patent publication US11629156B2, “7-phenylethylamino-4H-pyrimido[4,5-d][1,3]oxazin-2-one compounds as mutant IDH1 and IDH2 inhibitors” (Eli Lilly and Company, priority 2016, dated 2023)
# Test system: wild-type IDH1 (αKG) in HT1080 cells
# Assay: HT1080 cell assay, intracellular αKG
# Type: cell-based
# Conditions: highest concentration tested shown if curve did not reach 50%
row,Structure (SMILES),IC50 [µM]
1,"C=CC(=O)N1CCN(C(CC2CC2)c2ccc([C@H](C)Nc3ncc4c(n3)N(C)C(=O)OC4)cc2)CC1 (single isomer, unassigned) [Example 3]",> 0.2
2,"C=CC(=O)N1CCN(C(CC2CC2)c2ccc([C@H](C)Nc3ncc4c(n3)N(C)C(=O)OC4)cc2)CC1 (single isomer, unassigned) [Example 4]",> 0.2
3,"C=CC(=O)N1CCN(C(CC(C)C)c2ccc([C@H](C)Nc3ncc4c(n3)N(CC)C(=O)OC4)cc2)CC1 (single isomer, unassigned) [Example 7]",> 0.2
4,"C=CC(=O)N1CCN(C(CC(C)C)c2ccc([C@H](C)Nc3ncc4c(n3)N(CC)C(=O)OC4)cc2)CC1 (single isomer, unassigned) [Example 8]",> 0.2
5,"C=CC(=O)N1CCN(C(CC2CC2)c2ccc([C@H](C)Nc3cc4c(cn3)COC(=O)N4C)cc2)CC1 (single isomer, unassigned) [Example 9]",> 20
6,"C=CC(=O)N1CCN(C(CC2CC2)c2ccc([C@H](C)Nc3cc4c(cn3)COC(=O)N4C)cc2)CC1 (single isomer, unassigned) [Example 10]",> 20
7,"C=CC(=O)N1CCN(C(CC)c2ccc([C@H](C)Nc3ncc4c(n3)N(CC)C(=O)OC4)cc2)CC1 (single isomer, unassigned) [Example 11]",> 20
8,"C=CC(=O)N1CCN(C(CC)c2ccc([C@H](C)Nc3ncc4c(n3)N(CC)C(=O)OC4)cc2)CC1 (single isomer, unassigned) [Example 12]",> 20
9,"C=CC(=O)N1CCN(C(CCOC)c2ccc([C@H](C)Nc3ncc4c(n3)N(CC)C(=O)OC4)cc2)CC1 (single isomer, unassigned) [Example 13]",> 20
10,"C=CC(=O)N1CCN(C(CCOC)c2ccc([C@H](C)Nc3ncc4c(n3)N(CC)C(=O)OC4)cc2)CC1 (single isomer, unassigned) [Example 14]",> 20
